Key:
[1] = Particle size and polydispersity index of nanoparticle compositions (Zetasizer Nano ZS); type: physicochemical; conditions: for particle size, rank within the named table (in words): comparison amongst compositions
Outline: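 Values are size and PDI readings from a Zetasizer Nano ZS. Measurements are taken in 1×PBS; zeta potential, by contrast, uses 15 mM PBS.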

[2] = Encapsulation efficiency of RNA (QUANT-IT RIBOGREEN RNA assay); type: physicochemical; conditions: for encapsulation efficiency, rank within the named table (in words): comparison amongst compositions
Outline: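 RiboGreen fluorescence (ex ~480, em ~520 nm) measured after 15 min at 37 °C on samples at ~5 μg/mL in TE, pH 7.5, ± 2% Triton X-100 solution. After blank subtraction, free RNA is given as intact-sample signal divided by disrupted-sample signal.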

[3] = pKa of nanoparticle compositions; type: physicochemical
[4] = system: luciferase (Luc) mRNA expression; experiment: Expression of Luc induced by sample formulations, whole-body bioluminescence after intravenous administration; type: in vivo; conditions: mice, i.v., 0.5 mg/kg
Outline: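 Read-out is whole-body bioluminescence at 3, 6 and 24 h after a single intravenous dose of 0.5 mg/kg Luc mRNA in nanoparticle formulations. Groups of n=6 mice; PBS and standard MC3 formulation as references.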

[5] = system: modified luciferase expression; experiment: Expression of Luc in different organs (liver, lung, spleen, femur) 6 hours after intravenous administration; type: in vivo; conditions: i.v., 0.5 mpk
Procedure: The efficacy of the nanoparticle compositions presented in Tables 1, 1a, 17-1, 19-1, 20-1 and 21-1 was further evaluated by measuring the expression of modified luciferase in the liver, lung, spleen, and femur upon administration of a given composition. Formulations were administered intravenously to mice (n=3) at a dosage of 0.5 mpk and bioluminescence measured after 6 hours. The standard MC3 formulation and a PBS control were also tested.

[6] = system: IL-6; experiment: Cytokine production induced by sample formulations: IL-6; type: in vivo; conditions: mice, i.v., 0.5 mpk, 6 hours; for IL-6: in pg/mL (unit assumed)
Text: (§1) The introduction of foreign material into a mammalian body induces an innate immune response that promotes cytokine production. Such immune responses to, for example, nanoparticle compositions including therapeutic and/or prophylactic agents, are undesirable. The induction of certain cytokines is thus measured to evaluate the […] of nanoparticle compositions. The concentrations of various cytokines in mice upon intravenous administration of nanoparticle compositions presented in Tables 1, 1a, 17-1, 19-1, 20-1 and 21-1 at a dosage of 0.5 mpk was measured at 6 hours. The standard MC3 formulation and a PBS control were also tested.

[7] = system: IP-10; experiment: Cytokine production induced by sample formulations: IP-10; type: in vivo; conditions: mice, i.v., 0.5 mpk, 6 hours; for IP-10: in pg/mL (unit assumed)
Text: as §1

[8] = Table 1, rows without footnote mark
[9] = Table 1, rows without footnote mark (lipid:DOPE:cholesterol:PEG-DMG 40:20:38.5:1.5, Luc mRNA; MC3 standard formulation)

Structure (SMILES) | IL-6 induction, rank within the named table (in words) [6] | IP-10 induction, rank or comparison with IL-6 (in words) [7] | PDI ([1]; Table 17-1) | Size (nm) ([1]; Table 17-1) | EE (%) ([2]; Table 17-1) | pKa ([3]; Table 17-1) | Total Flux 3 hours ([4]; Table 17-2) | Total Flux 6 hours ([4]; Table 17-2) | Total Flux 24 hours ([4]; Table 17-2) | Total Flux Liver ([5]; Table 17-3, mice, liver) | Total Flux Lung ([5]; Table 17-3, mice) | Total Flux Spleen ([5]; Table 17-3, mice) | IL-6 ([6]; Table 17-4) | IP-10 ([7]; Table 17-4) | other results
CCCCCCCCCCCCCCN(CCCCCCCCCCCCCC)CCN(CCCCCCCCCCCCCC)CCN1CCN(CCN(CCCCCCCCCCCC)CCCCCC(=O)OCCCCC)CC1 [Compound 13, Pentyl 6-((2-(4-(2-((2-(ditetradecylamino)ethyl)(tetradecyl)amino)ethyl)piperazin-1-yl)ethyl)(dodecyl)amino)hexanoate] | highest expression | highest expression | – | – | – | – | – | – | – | – | – | – | – | – | PDI [1, 8]: 0.080; Size (nm) [1, 9]: 97.7 nm; EE (%) [2, 8]: 64.2%; pKa [3, 8]: 6.30; Total Flux 3 hours ([4]; Table 2): 3.59E+09; Total Flux 6 hours ([4]; Table 2): 3.80E+09; Total Flux 24 hours ([4]; Table 2): 3.11E+08; Total Flux Femur ([5]; Table 3, mice): 1.99E+06; Total Flux Liver ([5]; Table 3, mice, liver): 6.10E+08; Total Flux Lung ([5]; Table 3, mice): 2.89E+06; Total Flux Spleen ([5]; Table 3, mice): 3.63E+07; IL-6 ([6]; Table 4): 301; IP-10 ([7]; Table 4): 7266
CCCCCCCCCCCCN(CCCCCCCCCCCC)CCN1CCN(CCN(CCCCCC)CCN(CCCCCC)CCCCCC)CC1 [Compound 17, N^1-(2-(4-(2-(Didodecylamino)ethyl)piperazin-1-yl)ethyl)-N^1,N^2,N^2-trihexylethane-1,2-diamine] | – | – | – | – | – | – | – | – | – | – | – | – | – | – | PDI [1, 8]: 0.180; Size (nm) [1, 9]: 82.3 nm; EE (%) [2, 8]: 96.6%; pKa [3, 8]: 6.67; Total Flux 3 hours ([4]; Table 2): 7.55E+09; Total Flux 6 hours ([4]; Table 2): 2.49E+09; Total Flux 24 hours ([4]; Table 2): 7.61E+08; Total Flux Femur ([5]; Table 3, mice): 6.71E+05; Total Flux Liver ([5]; Table 3, mice, liver): 4.26E+08; Total Flux Lung ([5]; Table 3, mice): 7.26E+05; Total Flux Spleen ([5]; Table 3, mice): 3.20E+06; IL-6 ([6]; Table 4): 164; IP-10 ([7]; Table 4): 545
CCCCC/C=C\C/C=C\CCCCCCCCN(CCO)CCCCCC [Compound 17-2, 2-(Hexyl((9Z,12Z)-octadeca-9,12-dien-1-yl)amino)ethan-1-ol] | lowest IL-6 levels | lowest IP-10 levels | 0.104 | 136.9 | 57.2 | 6.92 | 2.83E+05 | 3.76E+05 | 2.64E+05 | 6.42E+04 | 1.96E+04 | 4.16E+04 | 9.88 | 72.8 | particle size, rank within the named table (in words) [1]: largest particles; encapsulation efficiency, rank within the named table (in words) [2]: did not encapsulate RNA with high efficiency
CCCCC/C=C\C/C=C\CCCCCCCCN(CCO)CCCCCCCCC [Compound 17-3, 2-(Nonyl((9Z,12Z)-octadeca-9,12-dien-1-yl)amino)ethan-1-ol] | lowest IL-6 levels | lowest IP-10 levels | 0.095 | 117.9 | 82.1 | 6.69 | 5.58E+05 | 1.38E+06 | 9.90E+05 | 2.51E+05 | 1.56E+04 | 1.02E+05 | 6.97 | 66.8 | –
CCCCC/C=C\C/C=C\CCCCCCCCN(CCO)CCCCCCCCCCCC [Compound 17-4, 2-(Dodecyl((9Z,12Z)-octadeca-9,12-dien-1-yl)amino)ethan-1-ol] | highest IL-6 and IP-10 levels | highest IL-6 and IP-10 levels | 0.154 | 95.6 | 94.5 | 6.34 | 1.22E+09 | 3.60E+08 | 6.05E+07 | 8.00E+07 | 1.95E+05 | 2.30E+06 | 80.7 | 560 | total flux / Luc expression, rank within the named table (in words) ([4]; each time point): substantially higher flux than compositions including Compounds 17-2, 17-3, and 17-7; total flux in the spleen, rank within the named table (in words) ([5]; mice): highest
CCCCC/C=C\C/C=C\CCCCCCCCN(CCO)CCCCCCCCCCCCCC [Compound 17-5, 2-(((9Z,12Z)—Octadeca-9,12-dien-1-yl)(tetradecyl)amino)ethan-1-ol] | – | – | 0.137 | 88.4 | 94.2 | 6.92 | 6.64E+08 | 8.54E+08 | 5.97E+07 | 1.17E+08 | 8.13E+05 | 2.13E+06 | 49.2 | 300 | total flux in the liver, rank within the named table (in words) ([5]; mice, liver): somewhat comparable to those including MC3; total flux in the spleen, rank within the named table (in words) ([5]; mice): highest
CCCCC/C=C\C/C=C\CCCCCCCCN(CCO)CCCCCCCCCCCCCCCCCC [Compound 17-6, 2-(((9Z,12Z)—Octadeca-9,12-dien-1-yl)(octadecyl)amino)ethan-1-ol] | – | – | 0.117 | 80.2 | 97.3 | 6.73 | 6.27E+07 | 1.19E+08 | 1.27E+07 | 2.16E+07 | 1.54E+05 | 9.06E+05 | 25.0 | 134 | encapsulation efficiency, rank within the named table (in words) [2]: comparable to that for MC3
CCCCCCCCCCCCCCN(CCO)CCCCCCCCCCCCCC [Compound 17-7, 2-(Ditetradecylamino)ethan-1-ol] | – | – | 0.110 | 68.5 | 95.6 | 5.68 | 4.68E+05 | 6.82E+05 | 5.46E+05 | 7.44E+04 | 1.35E+04 | 3.46E+04 | 49.9 | 100 | particle size, rank within the named table (in words) [1]: smallest particles

Reference: US10195156B2, “Compounds and compositions for intracellular delivery of agents” (ModernaTX, Inc., priority 2015, dated 2019)
